Calls of active or inactive are those of the source. No cut-off for these calls is given here.
Columns and labels:
Human alphaherpesvirus 1 [1] = experiment: Evaluated for antiviral activity against cutaneous HSV-1 C42 infections in guinea pig; Active; assay type: functional, organism-based
Human alphaherpesvirus 1 [2] = experiment: Evaluated for antiviral activity against cutaneous HSV-1 C42 infections in guinea pig; Not active; assay type: functional, organism-based

In the case of `COc1ccc(OP(=O)(O)C(=O)O)cc1`, the Effect (Human alphaherpesvirus 1 [1]) is reported as “Active”.

With `CCOP(=O)(Oc1ccc2c(c1)CCC2)C(=O)OC` (configuration not stated) the Effect (Human alphaherpesvirus 1 [2]) was “inactive”.

In the case of `O=C(OC1CCCCC1)P(=O)(O)O`, the Effect (Human alphaherpesvirus 1 [2]) is reported as “inactive”.

`CCOC(=O)P(=O)(O)Oc1ccccc1` was tested, and the Effect (Human alphaherpesvirus 1 [2]) was “inactive”.

`Cc1ccc(OP(=O)(Oc2ccc(C)cc2)C(=O)Oc2ccccc2)cc1` was tested, and the Effect (Human alphaherpesvirus 1 [1]) was “Active”.

`CC(C)OC(=O)P(=O)(O)O` was tested, and the Effect (Human alphaherpesvirus 1 [2]) was “inactive”.

`O=C(O)P(=O)(O)Oc1ccccc1` was tested, and the Effect (Human alphaherpesvirus 1 [1]) was “Active”.

In the case of `CC(C)OP(=O)(OC(C)C)C(=O)Oc1ccc([N+](=O)[O-])cc1`, the Effect (Human alphaherpesvirus 1 [2]) is reported as “inactive”.

In the case of `O=C(O)P(=O)(O)Oc1ccc2c(c1)CCC2`, the Effect (Human alphaherpesvirus 1 [1]) is reported as “Active”.

With `COc1ccc(OC(=O)P(=O)(O)O)cc1` the Effect (Human alphaherpesvirus 1 [1]) was “Active”.

With `COC(=O)P(=O)(O)Oc1c(C)cccc1C` the Effect (Human alphaherpesvirus 1 [2]) was “inactive”.

For `CCOP(=O)(Oc1c(C)cccc1C)C(=O)OC` (configuration not stated), the Effect (Human alphaherpesvirus 1 [2]) was “inactive”.

For `COP(=O)(O)C(=O)Oc1ccccc1`, the Effect (Human alphaherpesvirus 1 [1]) was “Active”.

`COC(=O)P(=O)(OC)OC12CC3CC(CC(C3)C1)C2` (configuration not stated) was tested, and the Effect (Human alphaherpesvirus 1 [2]) was “inactive”.

In the case of `CCOP(=O)(O)C(=O)O`, the Effect (Human alphaherpesvirus 1 [1]) is reported as “Active”.

For `Cc1ccc(OP(=O)(O)C(=O)O)cc1`, the Effect (Human alphaherpesvirus 1 [1]) was “Active”.

In the case of `COP(=O)(OC)C(=O)OC(C)C`, the Effect (Human alphaherpesvirus 1 [2]) is reported as “inactive”.

For `O=C(O)P(=O)(O)O`, the Effect (Human alphaherpesvirus 1 [1]) was “Active”.

`O=C(OCc1ccccc1)P(=O)(O)O` was tested, and the Effect (Human alphaherpesvirus 1 [2]) was “inactive”.

With `O=C(O)P(=O)(O)OC12CC3CC(CC(C3)C1)C2` the Effect (Human alphaherpesvirus 1 [1]) was “Active”.

In the case of `O=C(Oc1ccc(Cl)c(Cl)c1)P(=O)(O)O`, the Effect (Human alphaherpesvirus 1 [1]) is reported as “Active”.

In the case of `CCOP(=O)(O)C(=O)Oc1ccc(Cl)cc1`, the Effect (Human alphaherpesvirus 1 [1]) is reported as “Active”.

In the case of `COP(=O)(OC)C(=O)Oc1ccc([N+](=O)[O-])cc1`, the Effect (Human alphaherpesvirus 1 [2]) is reported as “inactive”.

In the case of `CCOC(=O)P(=O)(O)O`, the Effect (Human alphaherpesvirus 1 [2]) is reported as “inactive”.

In the case of `COP(=O)(OC)C(=O)OCc1ccccc1`, the Effect (Human alphaherpesvirus 1 [2]) is reported as “inactive”.

With `COP(=O)(O)C(=O)O` the Effect (Human alphaherpesvirus 1 [1]) was “Active”.

In the case of `COC(=O)P(=O)(OC(C)C)OC(C)C`, the Effect (Human alphaherpesvirus 1 [2]) is reported as “inactive”.

For `CCOP(=O)(Oc1ccc(C(C)=O)cc1)C(=O)OC` (configuration not stated), the Effect (Human alphaherpesvirus 1 [2]) was “inactive”.

In the case of `COC(=O)P(=O)(O)Oc1ccc2c(c1)CCC2`, the Effect (Human alphaherpesvirus 1 [2]) is reported as “inactive”.

In the case of `Cc1ccc(OP(=O)(O)C(=O)Oc2ccccc2)cc1`, the Effect (Human alphaherpesvirus 1 [1]) is reported as “Active”.

`O=C(Oc1ccc(Cl)cc1)P(=O)(O)O` was tested, and the Effect (Human alphaherpesvirus 1 [1]) was “Active”.

`CCOP(=O)(O)C(=O)Oc1ccc(OC)cc1` was tested, and the Effect (Human alphaherpesvirus 1 [1]) was “Active”.

`CCCCOP(=O)(O)C(=O)OC` was tested, and the Effect (Human alphaherpesvirus 1 [2]) was “inactive”.

`O=C(Oc1ccccc1)P(=O)(O)Oc1ccccc1` was tested, and the Effect (Human alphaherpesvirus 1 [1]) was “Active”.

`CCOP(=O)(Oc1ccc(Cl)cc1)C(=O)Oc1ccccc1` (configuration not stated) was tested, and the Effect (Human alphaherpesvirus 1 [1]) was “Active”.

In the case of `Cc1cccc(C)c1OP(=O)(O)C(=O)O`, the Effect (Human alphaherpesvirus 1 [1]) is reported as “Active”.

For `COP(=O)(OC)C(=O)OC1CCCCC1`, the Effect (Human alphaherpesvirus 1 [2]) was “inactive”.

For `CCCCOC(=O)P(=O)(O)O`, the Effect (Human alphaherpesvirus 1 [2]) was “inactive”.

In the case of `COP(=O)(OC)C(=O)Oc1ccc(Cl)c(Cl)c1`, the Effect (Human alphaherpesvirus 1 [2]) is reported as “inactive”.

In the case of `O=C(OCC1CCCC1)P(=O)(O)O`, the Effect (Human alphaherpesvirus 1 [2]) is reported as “inactive”.

`CCOC(=O)P(=O)(O)OCC` was tested, and the Effect (Human alphaherpesvirus 1 [2]) was “inactive”.

With `O=C(Oc1ccccc1)P(=O)(O)O` the Effect (Human alphaherpesvirus 1 [1]) was “Active”.

In the case of `COP(=O)(OC)C(=O)Oc1ccc(C)cc1`, the Effect (Human alphaherpesvirus 1 [2]) is reported as “inactive”.

`O=C(Oc1ccccc1)P(=O)(Oc1ccccc1)Oc1ccccc1` was tested, and the Effect (Human alphaherpesvirus 1 [1]) was “Active”.

With `CCCCOP(=O)(OCCCC)C(=O)OC` the Effect (Human alphaherpesvirus 1 [2]) was “inactive”.

For `Cc1ccc(OC(=O)P(=O)(O)O)cc1`, the Effect (Human alphaherpesvirus 1 [1]) was “Active”.

In the case of `COP(=O)(OC)C(=O)Oc1ccccc1`, the Effect (Human alphaherpesvirus 1 [2]) is reported as “inactive”.

`CCOP(=O)(Oc1ccc(OC)cc1)C(=O)Oc1ccccc1` (configuration not stated) was tested, and the Effect (Human alphaherpesvirus 1 [1]) was “Active”.

With `CCOP(=O)(OCC)C(=O)Oc1ccc(Cl)cc1` the Effect (Human alphaherpesvirus 1 [2]) was “inactive”.

In the case of `COC(=O)P(=O)(OC)Oc1ccc(C(C)=O)cc1` (configuration not stated), the Effect (Human alphaherpesvirus 1 [2]) is reported as “inactive”.

`CCCCOC(=O)P(=O)(OC)OC` was tested, and the Effect (Human alphaherpesvirus 1 [2]) was “inactive”.

In the case of `CCOC(=O)c1ccc(OC(=O)P(=O)(OCC)OCC)cc1`, the Effect (Human alphaherpesvirus 1 [2]) is reported as “inactive”.

With `CCOC(=O)c1ccc(OC(=O)P(=O)(O)O)cc1` the Effect (Human alphaherpesvirus 1 [1]) was “Active”.

With `COP(=O)(OC)C(=O)OCC1CCCC1` the Effect (Human alphaherpesvirus 1 [2]) was “inactive”.

`COP(=O)(O)C(=O)OCc1ccccc1` was tested, and the Effect (Human alphaherpesvirus 1 [2]) was “inactive”.

With `CCOP(=O)(OCC)C(=O)Oc1ccc(OC)cc1` the Effect (Human alphaherpesvirus 1 [2]) was “inactive”.

For `CCOC(=O)c1ccc(OC(=O)P(=O)(OC)OC)cc1`, the Effect (Human alphaherpesvirus 1 [2]) was “inactive”.

Source: ChEMBL document CHEMBL1122332, “Synthesis of esters of phosphonoformic acid and their antiherpes activity” (J Med Chem, 1983)
